By IC50 is commonly meant the concentration at which inhibition is half-maximal.

This is an account of results in PubChem BioAssay AID2305 (GlaxoSmithKline (GSK), 2010).

Molecules are shown by their SMILES. “And” between values parts separate entries of the source, which are not always exact repeats. Identical values can stand only once.

For this test, the system named is P. falciparum 3D7 growth, pLDH absorbance. The experiment in a line: P. falciparum 3D7 growth inhibition, dose response, strain 3D7 (AID 2305).

As for `CCn1c(-c2ccccc2)cc2nnc3ccccc3c21`, the IC50 came out at 0.77 µM. The figure for `Oc1ccc2nc(N3CCNCC3)nc(NCCCc3ccccc3)c2c1` is 1.37 µM. The result for `N#CC1(CCCNCCc2ccc(O)cc2)CCCc2c(O)cccc21` (centres undefined) reads 0.76 µM; that for `NC1=NC(c2ccccc2)(c2cccc(O)c2)C(=O)N1CCCc1ccccc1` (centres undefined), 1.23 µM and 0.84 µM; that for `Cc1ccccc1C1CCN(C2CCC(NC(=O)/C=C/c3ccc(Cl)cc3)CC2)CC1` (centres undefined), 0.8 µM. `COc1ccc(Nc2nccc(NCC(O)c3cccc(C(F)(F)F)c3)n2)cc1` (centres undefined) displayed an IC50 of 0.89 µM.

Compound `CC(=O)N1CCN(c2ccc(NC(=O)c3oc(-c4ccccc4)nc3C(F)(F)F)cn2)CC1` came in with an IC50 of 0.84 µM. The result for `Cc1cc(N2CCCCC2)nc2ccc(NC(=O)c3cc(=O)c4ccccc4o3)cc12` reads 0.72 µM. The figure for `O=c1[nH]c2c(cc1CNC1CCCCC1)c(-c1ccc(F)cc1)nn2-c1ccccc1` is 0.8 µM; for `CN(C)CCNCc1cccc(-c2ccc3c(Nc4ccc(Oc5ccccn5)cc4)ccnc3c2)c1` it is 0.23 µM.

In the case of `CC(C)(C)NCC(O)COc1ccc(Cl)cc1C1=NNC(=O)CC1` (centres undefined), the IC50 came to 0.15 µM. The result for `Nc1nc(N)c2cc(NC(=O)c3ccc(Cl)c(Cl)c3)ccc2n1` reads 0.15 µM; that for `c1ccc2c(CNCCCCCCNCc3c(OCC4CC4)ccc4ccccc34)c(OCC3CC3)ccc2c1`, 0.93 µM; that for `COc1cc(-c2nc(-c3ccc4c(c3)CCC4=NO)c(-c3ccncc3)[nH]2)ccc1OCCN1CCCCC1`, 0.79 µM.

As to `Cc1cc(NN=CC=Cc2ccccc2)c2ccccc2n1`, the IC50 came out at 0.76 µM. The result for `CC(Cc1ccc(OCc2ccccc2)cc1)NCC(O)c1cccc(Cl)c1` (centres undefined) reads 0.55 µM; that for `CC(C)c1ccc(NC(=O)N[C@H]2CCN(CCCCCNC(=O)/C=C/c3ccc(Cl)c(Cl)c3)C2)cc1`, 0.71 µM. The result for `CNCCNCc1ccc(-c2ccc(-c3nc4ccccc4[nH]3)s2)cc1` reads 0.86 µM; that for `CNC(=O)CNC(=O)COc1cccc2ccccc12`, 0.23 µM. Compound `COc1cc(F)c2ncc(Cl)c([C@H](O)CN3CCC(NCc4ccc5c(n4)NC(=O)CO5)CC3)c2c1` yielded an IC50 of 0.16 µM. The figure for `CC(C)CNCc1cccc(-c2ccc(CNc3ccc4ncccc4c3)cc2)c1` is 1.06 µM; for `COc1ccc(C2CC(c3cccs3)=NN2C(=O)CNc2ccccc2F)cc1OC` (centres undefined) it is 0.63 µM; for `Cc1oc(-c2ccccc2)nc1CCOc1ccc(C[C@H](Nc2ccccc2C(=O)c2ccccc2)C(=O)NCc2ccccn2)cc1` it is 0.88 µM.

Turning to `CN(C)c1ccc(-c2csc(C(=O)NC3CCN(Cc4ccc(C(C)(C)C)cc4)C3)c2)cc1` (centres undefined), the IC50 worked out at 0.95 µM. The result for `COc1ccc(CCn2c(=N)c(C(=O)NCc3cccnc3)cc3c(=O)n4ccccc4nc32)cc1` reads 0.88 µM. The result for `CC1CCC(NCc2c(O)ccc3ccccc23)CC1` (centres undefined) reads 0.77 µM.

`COc1cc(CCON2C(N)=NC(N)=NC2(C)C)cc(OC)c1OC` returned an IC50 of 0.05 µM. The figure for `CC(C)(CNC(=O)C1CCN(Cc2ccc(Cl)cc2)CC1)c1nc(-c2ccc(Cl)c(O)c2)c(-c2ccncc2)[nH]1` is 0.62 µM; for `CC[C@H]1CN2CC[C@H]1C[C@H]2[C@H](O)c1cc(/C=C/c2ccccc2)nc2ccc(OC)cc12` it is 0.04 µM; for `Cc1ccc(O)cc1Nc1ccnc2cc(-c3csc(CN(C)CCN(C)C)n3)ccc12` it is 0.79 µM. `CCCCCCCN1CC[C@@H](CCCc2ccnc3ccc(OCCCCNC(N)=O)cc23)[C@@H](CC)C1` returned an IC50 of 0.84 µM. The figure for `CCCc1cnc2nc(N)nc(N)c2c1C` is 1.12 µM; for `CCOc1ccccc1CCNCC1CCN(CC2CCCCC2)CC1` it is 0.78 µM; for `Clc1ccc2c(NCCCCCCCCNc3ccnc4cc(Cl)ccc34)ccnc2c1` it is 0.48 µM. The result for `COc1cc(O)c2c(=O)c(OC)c(-c3cccc(Cl)c3OC3O[C@H](CO)[C@@H](O)[C@H](O)[C@H]3O)oc2c1OC` (some centres undefined) reads 0.77 µM. The figure for `COc1ccc2nccc(N3CCC(NCCNS(=O)(=O)c4ccc5c(c4)NC(=O)CS5)C3)c2n1` (centres undefined) is 0.9 µM; for `O=C(Nc1ccc(SC(F)(F)F)cc1)Nc1ccnc2ccccc12` it is 0.75 µM; for `CS(=O)(=O)c1ccc(CNCc2cccc(-c3cccc(-c4nc5ccc(C(F)(F)F)cc5[nH]4)c3)c2)cc1` it is 0.18 µM. `CC(=O)Nc1ccc(CN(Cc2ccc(OC(C)(C)C)cc2)Cc2ccc3c(c2)OCCO3)cc1` came in with an IC50 of 0.93 µM. The figure for `CC(=O)NCCNCc1cccc(C(=O)NCc2cccc(C(F)(F)F)c2)c1` is 1.08 µM; for `O=C(Nc1cccc(-c2ccc(-c3nc4ccc(F)cc4[nH]3)s2)c1)c1cccnc1` it is 0.61 µM. In turn, `CN(C)c1ccc(-c2csc(C(=O)NC3CCCCN(CCC(C)(C)C)C3)c2)cc1` (centres undefined) returned an IC50 of 1.05 µM. The figure for `CC1CCCN(Cc2cc(Cl)cc(Cl)c2O)C1` (centres undefined) is 0.93 µM; for `O=C1Nc2cccc3c2C1(CCCCCN1CCC(c2c[nH]c4ccncc24)CC1)CCC3` (centres undefined) it is 0.99 µM. `CCCCCCC(C)(C)c1cc(O)c2c(c1)OC(C)(C)c1ccncc1-2` registered a 50% inhibitory concentration (IC50) of 0.18 µM. Consider `CS(=O)(=O)c1ccc(CNCc2ccc(-c3cccc(-c4nc5ccc(C(F)(F)F)cc5[nH]4)c3)cc2)cc1`, for which the IC50 turned out to be 0.14 µM. On to `CN(C)c1ccc(CN2CCC(NC(=O)c3ccc(-c4cccc(Cl)c4)s3)CC2)cc1`, for which the 50% inhibitory concentration (IC50) turned out to be 0.92 µM. On to `COc1cccc(-c2cc(C(F)(F)F)n3ncc(C(=O)Nc4cc(C)ccc4O)c3n2)c1`, for which the IC50 came to 0.16 µM. On to `CC(C)C[C@@H](C(=O)N[C@H](C(=O)Nc1nccs1)C(C)(C)C)[C@H](CCC(F)(F)F)N(O)C=O`, for which the IC50 came to 0.6 µM. The result for `COc1cc(CCNc2nc(NCc3ccccc3-c3ccccc3)nc(N3CCC(N)CC3)n2)ccc1O` reads 0.82 µM.

Regarding `C(=NNc1ccnc2ccccc12)c1ccncc1`, the 50% inhibitory concentration (IC50) worked out at 0.74 µM.

`N#Cc1cccc(NC(=O)Nc2cccc(-c3cccc(-c4nc5ccc(F)cc5[nH]4)c3)c2)c1` came in with an IC50 of 0.23 µM. The result for `O=C(Nc1cccc(CCNCc2ccccc2)c1)Nc1cccc2ccccc12` reads 0.73 µM. Regarding `CC[C@H]1CN2CC[C@H]1C[C@@H]2[C@@H](O)c1ccnc2ccccc12`, the IC50 turned out to be 0.28 µM. The compound `c1cc(-c2ccc(CNCc3ccc(-c4csnn4)cc3)cc2)cc(-c2nc3ccccc3[nH]2)c1` displayed an IC50 of 0.16 µM. The figure for `CC(C)Cc1c(O)nc(SCCN2CCOCC2)[nH]c1=O` is 1.26 µM. The result for `O=C(Nc1ccc(Br)cc1)N(CCN1CCOCC1)CC(O)COCc1ccc(Cl)c(Cl)c1` (centres undefined) reads 0.93 µM; that for `Cc1nc(-c2cccc3c(NC(=O)N4CCc5cc6nccc(N7CCN(C)CC7)c6cc54)cccc23)no1`, 0.76 µM; that for `COc1ccc(-c2ccc(NC(=O)c3cccc(C#N)c3)cc2)cc1CN(C)C`, 0.73 µM. The result for `O=C(c1cc(C(=O)Nc2ccc(F)cc2)c(=O)n(-c2ccc(F)cc2)c1)c1cc(Cl)ccc1O` reads 0.22 µM; that for `Oc1ccc(CCNCCCCCCNCCc2ccc(Cl)c(Cl)c2)cc1O`, 0.73 µM; that for `COc1ccc2ncc(F)c(CCN3CCC(NCc4cc5c(cn4)OCCS5)CC3)c2c1`, 0.78 µM. Turning to `Cc1cccc2[nH]c(-c3ccc(-c4cccc(NCc5cn6cccnc6n5)c4)cc3)nc12`, the IC50 was 0.79 µM. The figure for `CCOC(=O)c1ccc(NC(=O)N[C@@H](Cc2ccccc2)C(=O)NC2CCN(Cc3ccc(OCCCN(C)C)cc3)C2)cc1` (some centres undefined) is 0.7 µM.
